Assay results from PMC8586704 (Frontiers in Chemistry, 2021).
In brackets after ≈: the same amount, converted by molar mass. Where two headings read alike, the source gives them in different places. Starred links: 1 amine or outer side, 2 acyl side, 3 side chain; linkers in the order of their positions; H or OH if unused. Non-standard residues stand in square brackets, D forms with d. Residues, ends and D or L forms follow the SMILES beside them. Groups on a side chain read outwards from the residue. X11 = COC(=O)[C@H](Cc1c[nH]cn1)NC(=O)[C@@H](C)C[C@@H](C(=O)[*:2])N(C)[*:1]; X10 = CC[C@H](C)[C@H](NC(=O)[C@@H](C)C[C@@H](C(=O)[*:2])N(C)[*:1])C(=O)OC; X13 = C[C@@H](C[C@@H](C(=O)[*:2])N(C)[*:1])C(=O)NCc1ccc(C(F)(F)F)cc1; X4 = COC(=O)[C@H](CCSC)NC(=O)[C@@H](C)C[C@@H](C(=O)[*:2])N(C)[*:1]; Trp(1-(1,1-Me2-allyl)) = C=CC(C)(C)n1cc(C[C@H](N)C(=O)O)c2ccccc21; X5 = O=C(Oc1ccc(C[C@H](N[*:1])C(=O)[*:2])cc1[N+](=O)[O-])c1cnccn1; NMeGlu(4S-Me) = C[C@@H](C[C@@H](C(=O)[*:2])N(C)[*:1])C(=O)[*:3]; X14 = C[C@@H](C[C@@H](C(=O)[*:2])N(C)[*:1])C(=O)NCc1ccc(Cl)cc1; X6 = C[C@@H](C[C@@H](C(=O)[*:2])N(C)[*:1])C(=O)NNC(=O)c1ccncc1; X1 = C[C@@H](C[C@@H](C(=O)[*:2])N(C)[*:1])C(=O)NCc1ccc(F)cc1; X12 = C[C@@H](C[C@@H](C(=O)[*:2])N(C)[*:1])C(=O)NCc1ccccc1; Tyr(3-NO2) = N[C@@H](Cc1ccc(O)c([N+](=O)[O-])c1)C(=O)O; Gly(E-crotyl) = C/C=C/C[C@H](N)C(=O)O; NMeL = CN[C@@H](CC(C)C)C(=O)O

What was measured:
L02 = experiment: cells; assay type: cell-based; conditions: normal human hepatic cell line
Huvec-12 = experiment: Cytotoxicity assay (CCK-8); assay type: cell-based; conditions: normal human umbilical vein endothelial cell line
A549 = experiment: Cytotoxicity assay (CCK-8); assay type: cell-based; conditions: Homo sapiens, lung cancer cell line
M. tuberculosis H37Rv = experiment: Antitubercular activity assay, broth dilution, auto-luminescent strain; assay type: cell-based, Mycobacterium tuberculosis
MCF-7 = experiment: cells; assay type: cell-based; conditions: Homo sapiens, MCF7; breast adenocarcinoma cell line
HCT116 = experiment: cells; assay type: cell-based; conditions: Homo sapiens, HCT-116; colon cancer cell line
HeLa = experiment: cells; assay type: cell-based; conditions: Homo sapiens, cervical carcinoma cell line
HepG2 = experiment: cells; assay type: cell-based; conditions: Homo sapiens, hepatocellular carcinoma cell line
[1] = Mycobacterium tuberculosis, H37RV, Day 3rd, read-out: MICs against H37Rv, Day 3rd
[2] = Mycobacterium tuberculosis, H37RV, Day 7th, read-out: MICs against H37Rv, Day 7th
[3] = Mycobacterium tuberculosis, H37RV, Day 14th, read-out: MICs against H37Rv, Day 14th
[4] = Mycobacterium tuberculosis, H37RV, read-out: MICs against H37Rv, Day 3rd
[5] = Mycobacterium tuberculosis, H37RV, read-out: MICs against H37Rv, Day 7th
[6] = Mycobacterium tuberculosis, H37RV, read-out: MICs against H37Rv, Day 14th
[7] = Day 3rd, read-out: MICs against H37Rv, Day 3rd
[8] = Day 14th, read-out: MICs against H37Rv, Day 14th

SMILES	IC50 (L02) [µM]	IC50 (Huvec-12) [µM]	IC50 (A549) [µM]	MIC (M. tuberculosis H37Rv; [1]) [µM]	MIC (M. tuberculosis H37Rv; [2]) [µM]	MIC (M. tuberculosis H37Rv; [3]) [µM]	IC50 (MCF-7) [µM]	IC50 (HCT116) [µM]	IC50 (HeLa) [µM]	IC50 (HepG2) [µM]	MIC (M. tuberculosis H37Rv; [4]) [µM]	MIC (M. tuberculosis H37Rv; [5]) [µM]	MIC (M. tuberculosis H37Rv; [6]) [µM]	MIC (M. tuberculosis H37Rv; [7]) [µM]	MIC (M. tuberculosis H37Rv; [8]) [µM]	increase of anti-TB activity compared with ilamycin F (M. tuberculosis H37Rv; Day 3rd)	more potent MIC value than that of 9 and 11 (M. tuberculosis H37Rv; Day 14th) [fold]
C=CC(C)(C)n1cc(C[C@@H]2NC(=O)[C@H](C/C=C/C)NC(=O)[C@H](CC(C)C)NC(=O)[C@H](C[C@H](C)C(=O)N[C@@H](CCCNC(=N)N)C(=O)OC)N(C)C(=O)[C@H](C)NC(=O)[C@H](Cc3ccc(O)c([N+](=O)[O-])c3)NC(=O)[C@H](CC(C)C)N(C)C2=O)c2ccccc21 [Compound 4, ilamycin NJL4] (cyclo(A[NMeGlu(4S-Me)]([Arg-OMe])L[Gly(E-crotyl)][Trp(1-(1,1-Me2-allyl))][NMeL][Tyr(3-NO2)]))	25.9	35.2	23	26.4 (≈ 32 µg/mL)	26.4 (≈ 32 µg/mL)	26.4 (≈ 32 µg/mL)	> 50	30.6	26	> 50	–	–	–	–	–	–	–
C=CC(C)(C)n1cc(C[C@@H]2NC(=O)[C@H](C/C=C/C)NC(=O)[C@H](CC(C)C)NC(=O)[C@H](C[C@H](C)C(=O)NNC(=O)c3ccncc3)N(C)C(=O)[C@H](C)NC(=O)[C@H](Cc3ccc(O)c([N+](=O)[O-])c3)NC(=O)[C@H](CC(C)C)N(C)C2=O)c2ccccc21 [Compound 13, ilamycin NJL13] (cyclo(A[X6]L[Gly(E-crotyl)][Trp(1-(1,1-Me2-allyl))][NMeL][Tyr(3-NO2)]))	> 50	> 50	> 50	–	–	–	> 50	> 50	> 50	> 50	27.6 (≈ 32.1 µg/mL)	27.6 (≈ 32.1 µg/mL)	27.6 (≈ 32.1 µg/mL)	–	–	–	–
C=CC(C)(C)n1cc(C[C@@H]2NC(=O)[C@H](C/C=C/C)NC(=O)[C@H](CC(C)C)NC(=O)[C@H](C[C@H](C)C(=O)N[C@H](C(=O)OC)[C@@H](C)CC)N(C)C(=O)[C@H](C)NC(=O)[C@H](Cc3ccc(O)c([N+](=O)[O-])c3)NC(=O)[C@H](CC(C)C)N(C)C2=O)c2ccccc21 [Compound 3, ilamycin NJL3] (cyclo(A[X10]L[Gly(E-crotyl)][Trp(1-(1,1-Me2-allyl))][NMeL][Tyr(3-NO2)]))	12	> 50	> 50	6.8 (≈ 7.95 µg/mL)	6.8 (≈ 7.95 µg/mL)	6.8 (≈ 7.95 µg/mL)	> 50	> 50	14.5	> 50	–	–	–	–	–	–	–
COc1cccc2c1C(=O)c1c(O)c3c(c(O)c1C2=O)C[C@@](O)(C(=O)CO)C[C@@H]3O[C@H]1C[C@H](N)[C@H](O)[C@H](C)O1 [doxorubicin, reference compound]	7.7	12	1.5	–	–	–	4	4	0.7	0.6	–	–	–	–	–	–	–
C=CC(C)(C)n1cc(C[C@@H]2NC(=O)[C@H](C/C=C/C)NC(=O)[C@H](CC(C)C)NC(=O)[C@H](C[C@H](C)C(=O)N[C@@H](Cc3ccc(O)cc3)C(=O)OC)N(C)C(=O)[C@H](C)NC(=O)[C@H](Cc3ccc(O)c([N+](=O)[O-])c3)NC(=O)[C@H](CC(C)C)N(C)C2=O)c2ccccc21 [Compound 8, ilamycin NJL8] (cyclo(A[NMeGlu(4S-Me)]([Tyr-OMe])L[Gly(E-crotyl)][Trp(1-(1,1-Me2-allyl))][NMeL][Tyr(3-NO2)]))	> 50	> 50	> 50	1.6 to 3.5 (≈ 1.95 to 4.27 µg/mL)	1.6 (≈ 1.95 µg/mL)	1.6 to 1.7 (≈ 1.95 to 2.07 µg/mL)	> 50	> 50	> 50	> 50	–	–	–	1.6 (≈ 1.95 µg/mL)	1.6 (≈ 1.95 µg/mL)	–	–
C=CC(C)(C)n1cc(C[C@@H]2NC(=O)[C@H](C/C=C/C)NC(=O)[C@H](CC(C)C)NC(=O)[C@H](C[C@H](C)C(=O)NCc3ccc(Cl)cc3)N(C)C(=O)[C@H](C)NC(=O)[C@H](Cc3ccc(O)c([N+](=O)[O-])c3)NC(=O)[C@H](CC(C)C)N(C)C2=O)c2ccccc21 [Compound 11, ilamycin NJL11] (cyclo(A[X14]L[Gly(E-crotyl)][Trp(1-(1,1-Me2-allyl))][NMeL][Tyr(3-NO2)]))	> 50	> 50	> 50	3.4 (≈ 3.96 µg/mL)	3.4 (≈ 3.96 µg/mL)	3.4 (≈ 3.96 µg/mL)	> 50	> 50	> 50	> 50	–	–	–	–	–	–	–
C=CC(C)(C)n1cc(C[C@@H]2NC(=O)[C@H](C/C=C/C)NC(=O)[C@H](CC(C)C)NC(=O)[C@H](C[C@H](C)C(=O)O)N(C)C(=O)[C@H](C)NC(=O)[C@H](Cc3ccc(OC(=O)c4cnccn4)c([N+](=O)[O-])c3)NC(=O)[C@H](CC(C)C)N(C)C2=O)c2ccccc21 [Compound 15, ilamycin NJL15] (cyclo(A[NMeGlu(4S-Me)]L[Gly(E-crotyl)][Trp(1-(1,1-Me2-allyl))][NMeL][X5]))	> 50	> 50	> 50	27.9 (≈ 32 µg/mL)	27.9 (≈ 32 µg/mL)	27.9 (≈ 32 µg/mL)	> 50	> 50	> 50	> 50	–	–	–	–	–	–	–
C=CC(C)(C)n1cc(C[C@@H]2NC(=O)[C@H](C/C=C/C)NC(=O)[C@H](CC(C)C)NC(=O)[C@H](C[C@H](C)C(=O)N[C@@H](CCSC)C(=O)OC)N(C)C(=O)[C@H](C)NC(=O)[C@H](Cc3ccc(O)c([N+](=O)[O-])c3)NC(=O)[C@H](CC(C)C)N(C)C2=O)c2ccccc21 [Compound 2, ilamycin NJL2] (cyclo(A[X4]L[Gly(E-crotyl)][Trp(1-(1,1-Me2-allyl))][NMeL][Tyr(3-NO2)]))	> 50	> 50	> 50	6.7 (≈ 7.96 µg/mL)	6.7 (≈ 7.96 µg/mL)	3.4 (≈ 4.04 µg/mL)	> 50	> 50	> 50	> 50	–	–	–	–	–	–	–
C=CC(C)(C)n1cc(C[C@@H]2NC(=O)[C@H](C/C=C/C)NC(=O)[C@H](CC(C)C)NC(=O)[C@H](C[C@H](C)C(=O)N[C@@H](Cc3c[nH]c4ccccc34)C(=O)OC)N(C)C(=O)[C@H](C)NC(=O)[C@H](Cc3ccc(O)c([N+](=O)[O-])c3)NC(=O)[C@H](CC(C)C)N(C)C2=O)c2ccccc21 [Compound 6, ilamycin NJL6] (cyclo(A[NMeGlu(4S-Me)]([Trp-OMe])L[Gly(E-crotyl)][Trp(1-(1,1-Me2-allyl))][NMeL][Tyr(3-NO2)]))	> 50	> 50	> 50	1.6 to 3.5 (≈ 1.99 to 4.35 µg/mL)	1.7 (≈ 2.11 µg/mL)	1.6 to 1.7 (≈ 1.99 to 2.11 µg/mL)	> 50	> 50	> 50	> 50	–	–	–	1.7 (≈ 2.11 µg/mL)	1.7 (≈ 2.11 µg/mL)	–	–
C=CC(C)(C)n1cc(C[C@@H]2NC(=O)[C@H](C/C=C/C)NC(=O)[C@H](CC(C)C)NC(=O)[C@H](C[C@H](C)C(=O)N[C@@H](Cc3c[nH]cn3)C(=O)OC)N(C)C(=O)[C@H](C)NC(=O)[C@H](Cc3ccc(O)c([N+](=O)[O-])c3)NC(=O)[C@H](CC(C)C)N(C)C2=O)c2ccccc21 [Compound 5, ilamycin NJL5] (cyclo(A[X11]L[Gly(E-crotyl)][Trp(1-(1,1-Me2-allyl))][NMeL][Tyr(3-NO2)]))	> 50	> 50	> 50	26.8 (≈ 32 µg/mL)	26.8 (≈ 32 µg/mL)	26.8 (≈ 32 µg/mL)	> 50	> 50	> 50	> 50	–	–	–	–	–	–	–
C=CC(C)(C)n1cc(C[C@@H]2NC(=O)[C@H](C/C=C/C)NC(=O)[C@H](CC(C)C)NC(=O)[C@H](C[C@H](C)C(=O)NCc3ccc(C(F)(F)F)cc3)N(C)C(=O)[C@H](C)NC(=O)[C@H](Cc3ccc(O)c([N+](=O)[O-])c3)NC(=O)[C@H](CC(C)C)N(C)C2=O)c2ccccc21 [Compound 12, ilamycin NJL12] (cyclo(A[X13]L[Gly(E-crotyl)][Trp(1-(1,1-Me2-allyl))][NMeL][Tyr(3-NO2)]))	> 50	> 50	> 50	–	–	–	> 50	> 50	> 50	> 50	> 100	> 100	> 100	–	–	–	–
C=CC(C)(C)n1cc(C[C@@H]2NC(=O)[C@H](C/C=C/C)NC(=O)[C@H](CC(C)C)NC(=O)[C@H](C[C@H](C)C(=O)NCc3ccccc3)N(C)C(=O)[C@H](C)NC(=O)[C@H](Cc3ccc(O)c([N+](=O)[O-])c3)NC(=O)[C@H](CC(C)C)N(C)C2=O)c2ccccc21 [Compound 9, ilamycin NJL9] (cyclo(A[X12]L[Gly(E-crotyl)][Trp(1-(1,1-Me2-allyl))][NMeL][Tyr(3-NO2)]))	> 50	> 50	> 50	3.5 (≈ 3.96 µg/mL)	3.5 (≈ 3.96 µg/mL)	3.5 (≈ 3.96 µg/mL)	> 50	> 50	> 50	> 50	–	–	–	–	–	–	–
C=CC(C)(C)n1cc(C[C@@H]2NC(=O)[C@H](C/C=C/C)NC(=O)[C@H](CC(C)C)NC(=O)[C@H](C[C@H](C)C(=O)NCc3ccc(F)cc3)N(C)C(=O)[C@H](C)NC(=O)[C@H](Cc3ccc(O)c([N+](=O)[O-])c3)NC(=O)[C@H](CC(C)C)N(C)C2=O)c2ccccc21 [Compound 10, ilamycin NJL10] (cyclo(A[X1]L[Gly(E-crotyl)][Trp(1-(1,1-Me2-allyl))][NMeL][Tyr(3-NO2)]))	> 50	> 50	> 50	1.6 to 3.5 (≈ 1.84 to 4.02 µg/mL)	1.7 (≈ 1.95 µg/mL)	1.6 to 1.7 (≈ 1.84 to 1.95 µg/mL)	> 50	> 50	> 50	> 50	–	–	–	1.7 (≈ 1.95 µg/mL)	1.7 (≈ 1.95 µg/mL)	9–19 fold	2
